Results as given in US20120046273A1, “COMPOUNDS AND COMPOSITIONS FOR COGNITION-ENHANCEMENT, METHODS OF MAKING, AND METHODS OF TREATING” (MITHRIDION, INC., priority 2009, published 2012).

Key:
[1] = target: T1, human muscarinic M3 receptors (Homo sapiens, UniProt P20309); test: Inositol phosphate production in huM3/A9L cells (IPOne TR-FRET); type: cell-based; settings: for huM3/A9L Smax: percentage of maximal stimulation by carbachol; for huM3/A9L ED50 relative to CCh: potency relative to carbachol
T1 construct: expressed in transfected cells; host or cells: A9L cells (gift from Professor W Messer)
Description: (§1) Muscarinic M1 and M3 agonist activity was evaluated by measuring the stimulation of inositol phosphate (IP) production in the presence of lithium chloride from A9L cells transfected with expression plasmids containing human muscarinic M1 and M3 receptors, respectively. The cell lines were a gift from Professor W Messer, and the methods were as described in Tejada F R et al. J. Med. Chem. 2006; 49: 7518-31 except that the assay was scaled down to run in 384 well plates, and IP was measured in the cell lysates using the non-isotopic IPOne TR-FRET assay (CIS-BIO, Inc).
(§2) Cells were grown to 90% confluence in 384 well hi-base plates (Greiner Bio-One), compounds were added at suitable concentrations in growth medium containing 10 mM LiCL, buffered with an extra 10 mM HEPES (pH7.4), and incubated for 60 minutes at 37° C. Cells were lysed and assayed for IP following the manufacturer's instructions.
(§3) The value for a full agonist is 100%, while partial agonists give values below 100%.

[2] = target: T2, human muscarinic M1 receptors (Homo sapiens, UniProt P11229); test: Inositol phosphate production in huM1/A9L cells (IPOne TR-FRET); type: cell-based; settings: for huM1/A9L Smax: percentage of maximal stimulation by carbachol; for huM1/A9L ED50 relative to CCh: potency relative to carbachol
T2 construct: expressed in transfected cells; host or cells: A9L cells (gift from Professor W Messer)
T2 sequence (P11229 1-460): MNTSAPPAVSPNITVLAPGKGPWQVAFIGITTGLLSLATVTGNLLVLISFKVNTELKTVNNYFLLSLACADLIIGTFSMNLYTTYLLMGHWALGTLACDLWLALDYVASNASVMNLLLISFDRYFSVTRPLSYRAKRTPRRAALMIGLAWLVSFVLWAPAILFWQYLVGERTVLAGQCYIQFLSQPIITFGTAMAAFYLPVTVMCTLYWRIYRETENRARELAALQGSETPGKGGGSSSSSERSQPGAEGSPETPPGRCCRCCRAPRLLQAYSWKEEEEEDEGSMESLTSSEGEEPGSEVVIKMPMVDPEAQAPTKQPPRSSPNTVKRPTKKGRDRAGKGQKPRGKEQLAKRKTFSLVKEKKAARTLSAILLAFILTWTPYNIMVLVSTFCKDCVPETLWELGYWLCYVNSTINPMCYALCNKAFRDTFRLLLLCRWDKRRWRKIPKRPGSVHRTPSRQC
Description: as §1, §2, §3

[3] = system: pooled male Sprague-Dawley rat liver microsomes; test: Metabolism by rat liver microsomes; type: in vitro ADME; settings: 6 hours incubation
Description: (§4) Compounds were incubated with pooled male Sprague-Dawley rat liver microsomes (BD Biosciences, #452501) and an NADP-regenerating system in a phosphate buffer (pH 7.4) for a total of 6 hours. Aliquots were removed every 2 hours, and 1% formic acid was added to halt the reaction. Samples were centrifuged, filtered through 0.2 micron spinfilter and the amount of each compound in the supernatants was quantitated using LC/MS/MS.

[4] = system: pooled male human liver microsomes; test: Metabolism by human liver microsomes; type: in vitro ADME; settings: for extent of metabolism in human liver microsomes: 6 hours incubation; for rate of metabolism compared with the other enantiomer: human liver microsomes, as also in rat liver microsomes and FMO Supersomes
Description: as §4, with “human” for “Sprague-Dawley rat”, “#452172)” for “#452501)”

[5] = system: apomorphine induced climbing; test: Apomorphine induced climbing model of psychosis; type: in vivo, CD-I mice; settings: mice, sc
Description: As described in Costall et. al. European Journal of Pharmacology 1978, 50, 39. individual CD-I mice, 1-2 months old, were placed in a cylindrical wire mesh cage (13.2 cm high×13.2 cm diameter) constructed of steel wire 1 mm thick spaced at 1.2 cm^2. Cylinders were placed in a standard OptiMICE mouse cage (29×32×9×29 cm wide and 14 cm high) with adequate wood chip bedding provided. Observations of climbing (defined as 3 or more paws off the ground) were carried out every 5 minutes at a duration of 1 minute for 30 minutes. Animals were injected subcutaneously under isoflurane anesthesia with test compounds, reference compounds, which included clozapine, haloperidol, olanzapine and xanomeline, or PBS as a control. This was followed 5 minutes later by 2 mg/kg apomorphine hydrochloride. All drugs were dissolved in PBS or a mixture of (by volume) 96% PBS and 4% hydroxypropyl-beta-cyclodextrin, and dosed at a rate of 5 ml per kilogram of body weight. Following injections, animals were replaced in the mesh cages and observed for climbing (defined as 3 or more paws off the ground) every 5 minutes for a duration of 1 minute for 60 minutes after dosing.

T1 sequence (P20309 whole entry): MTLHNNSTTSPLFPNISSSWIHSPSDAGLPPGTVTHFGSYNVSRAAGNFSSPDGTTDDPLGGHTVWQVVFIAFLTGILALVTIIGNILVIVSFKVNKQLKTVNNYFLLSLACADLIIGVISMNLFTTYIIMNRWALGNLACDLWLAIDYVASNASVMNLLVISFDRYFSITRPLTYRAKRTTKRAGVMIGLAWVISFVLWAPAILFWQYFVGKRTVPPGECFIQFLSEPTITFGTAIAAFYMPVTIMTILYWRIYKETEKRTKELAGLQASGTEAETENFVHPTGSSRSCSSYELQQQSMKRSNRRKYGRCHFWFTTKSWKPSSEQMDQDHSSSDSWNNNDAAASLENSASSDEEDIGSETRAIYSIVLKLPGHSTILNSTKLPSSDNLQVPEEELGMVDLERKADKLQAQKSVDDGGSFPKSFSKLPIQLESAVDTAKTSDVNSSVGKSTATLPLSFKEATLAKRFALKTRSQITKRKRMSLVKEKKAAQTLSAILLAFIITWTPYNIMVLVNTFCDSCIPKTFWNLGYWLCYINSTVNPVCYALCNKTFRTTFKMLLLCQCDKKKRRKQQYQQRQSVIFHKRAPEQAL

CCc1noc(C2CCCNC2)n1 (stereo not shown) [Compound 128, 3-ethyl-5-(piperidin-3-yl)-1,2,4-oxadiazole, reference compound]
huM3/A9L Smax [1]: <14%
huM3/A9L ED50 relative to CCh [1]: inactive
huM1/A9L Smax [2]: 15%
huM1/A9L ED50 relative to CCh [2]: inactive

Cc1noc(C2CCNC2)n1 (stereo not shown) [Compound 115, 3-methyl-5-(pyrrolidin-3-yl)-1,2,4-oxadiazole]
huM3/A9L ED50 relative to CCh [1]: − (potency <0.5-0.1x CCh)
huM1/A9L ED50 relative to CCh [2]: + (potency 2-10x CCh)

Cc1noc(C2CCCN(C)C2)n1 (stereo not shown) [Compound 86, 3-Methyl-5-(1-methylpiperidin-3-yl)-1,2,4-oxadiazole]
huM3/A9L Smax [1]: 20%
huM3/A9L ED50 relative to CCh [1]: inactive
huM1/A9L Smax [2]: 20%
huM1/A9L ED50 relative to CCh [2]: inactive

Cc1noc([C@@H]2CCCN[C@@H]2C)n1 [Compound 108]
huM3/A9L Smax [1]: 32%
huM3/A9L ED50 relative to CCh [1]: inactive
huM1/A9L Smax [2]: 41%
huM1/A9L ED50 relative to CCh [2]: −− (potency <0.1x CCh)

Cc1noc(C2CCCNC2)n1 (single isomer, unassigned) [Compound 84, 3-methyl-5-(piperidin-3-yl)-1,2,4-oxadiazole]
extent of metabolism in rat liver microsomes [3]: far more stable than compounds 126 and 127
huM3/A9L Smax [1]: 66%
huM3/A9L ED50 relative to CCh [1]: +/− (potency 0.5-2x CCh)
huM1/A9L Smax [2]: 129%
huM1/A9L ED50 relative to CCh [2]: + (potency 2-10x CCh)
extent of metabolism in human liver microsomes [4]: metabolized significantly less in human liver microsomes than in rat liver microsomes

Cc1noc([C@@H]2CNC[C@@H](C)C2)n1 [Compound 105]
huM3/A9L Smax [1]: 14%
huM3/A9L ED50 relative to CCh [1]: inactive
huM1/A9L Smax [2]: 18%
huM1/A9L ED50 relative to CCh [2]: inactive

Cc1noc([C@H]2CC[C@H](C)NC2)n1 [Compound 103]
huM3/A9L Smax [1]: 34%
huM3/A9L ED50 relative to CCh [1]: inactive
huM1/A9L Smax [2]: 15%
huM1/A9L ED50 relative to CCh [2]: inactive

Cc1noc([C@H]2CCCN[C@@H]2C)n1 [Compound 109]
huM3/A9L Smax [1]: 20%
huM3/A9L ED50 relative to CCh [1]: inactive
huM1/A9L Smax [2]: 3%
huM1/A9L ED50 relative to CCh [2]: inactive

[2H]C([2H])([2H])c1noc(C2CCCNC2)n1 (single isomer, unassigned) [Compound 89, 3-(methyl-d3)-5-(piperidin-3-yl)-1,2,4-oxadiazole]
extent of metabolism in rat liver microsomes [3]: far more stable than compounds 126 and 127
activity in the apomorphine induced climbing model [5]: potent and effective
huM3/A9L Smax [1]: 86%
huM3/A9L ED50 relative to CCh [1]: +/− (potency 0.5-2x CCh)
huM1/A9L Smax [2]: 90%
huM1/A9L ED50 relative to CCh [2]: + (potency 2-10x CCh)
extent of metabolism in human liver microsomes [4]: metabolized significantly less in human liver microsomes than in rat liver microsomes
rate of metabolism compared with the other enantiomer [4]: metabolized faster than the enantiomers

Cc1noc(C2CCCNC2)n1 (single isomer, unassigned) [Compound 83, 3-methyl-5-(piperidin-3-yl)-1,2,4-oxadiazole]
extent of metabolism in rat liver microsomes [3]: far more stable than compounds 126 and 127
activity in the apomorphine induced climbing model [5]: potent and effective
huM3/A9L Smax [1]: 47%
huM3/A9L ED50 relative to CCh [1]: − (potency <0.5-0.1x CCh)
huM1/A9L Smax [2]: 147%
huM1/A9L ED50 relative to CCh [2]: +/− (potency 0.5-2x CCh)
extent of metabolism in human liver microsomes [4]: metabolized significantly less in human liver microsomes than in rat liver microsomes
rate of metabolism compared with the other enantiomer [4]: metabolized faster than the enantiomers

[2H]C([2H])([2H])c1noc(C2CCCNC2)n1 (single isomer, unassigned) [Compound 90, 3-(methyl-d3)-5-(piperidin-3-yl)-1,2,4-oxadiazole]
extent of metabolism in rat liver microsomes [3]: far more stable than compounds 126 and 127
huM3/A9L Smax [1]: 76%
huM3/A9L ED50 relative to CCh [1]: −− (potency <0.1x CCh)
huM1/A9L Smax [2]: 81%
huM1/A9L ED50 relative to CCh [2]: +/− (potency 0.5-2x CCh)
extent of metabolism in human liver microsomes [4]: metabolized significantly less in human liver microsomes than in rat liver microsomes

Cc1noc([C@H]2CNC[C@@H](C)C2)n1 [Compound 104]
huM3/A9L Smax [1]: 20%
huM3/A9L ED50 relative to CCh [1]: inactive
huM1/A9L Smax [2]: 9%
huM1/A9L ED50 relative to CCh [2]: inactive

Nc1noc(C2CCCNC2)n1 (stereo not shown) [Compound 111, 3-Amino-5-(piperidin-3-yl)-1,2,4-oxadiazole]
huM3/A9L Smax [1]: 20%
huM3/A9L ED50 relative to CCh [1]: +/− (potency 0.5-2x CCh)
huM1/A9L Smax [2]: 97%
huM1/A9L ED50 relative to CCh [2]: + (potency 2-10x CCh)

Cc1noc(C2(F)CCCNC2)n1 (stereo not shown) [Compound 118, 5-(3-fluoropiperidin-3-yl)-3-methyl-1,2,4-oxadiazole]
huM3/A9L ED50 relative to CCh [1]: −− (potency <0.1x CCh)
PAMPA (? × 106) (PAMPA test): 16.3 ? × 106
rate of crossing the lipid layer in the PAMPA test (PAMPA test): highest rate of penetration
huM1/A9L ED50 relative to CCh [2]: − (potency <0.5-0.1x CCh)

Cc1noc(C2CCC(C)NC2)n1 (stereo not shown) [Compound 102, 3-Methyl-5-(6-methylpiperidin-3-yl)-1,2,4-oxadiazole]
huM3/A9L Smax [1]: 18%
huM3/A9L ED50 relative to CCh [1]: inactive
huM1/A9L Smax [2]: 14%
huM1/A9L ED50 relative to CCh [2]: inactive
